# In patent US8609836B2, “4-aryl-2-anilino-pyrimidines” (Janssen Pharmaceutica NV, priority 2008, dated 2013):
# What was measured:
# [1] = target: AuroraB (h) (Homo sapiens, UniProt Q96GD4); assay: Aurora-B human kinase inhibition, SPA; assay type: biochemical; details: read-out: AuroraB pIC50 (converted)
# Procedure, shortened: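 AuroraB (0.5 μg/ml) phosphorylates 3 μM biotin-peptide using 0.5 μM ATP spiked with 33P-ATP in Hepes pH 7.5 with 3 mM MgCl2 and MnCl2, for 60 min at room temperature. EDTA stop solution carries streptavidin scintillant beads, and the captured radiolabel is imaged.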
# [2] = tested on: H1299; assay: Cellular proliferation assay (Alamar blue), H1299; assay type: cell-based; details: Homo sapiens, NCI-H1299; 10% FCS; 72 hours with compound; Alamar blue 4 h
# Procedure, shortened: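 This proliferation assay on NCI-H1299 cells used an initial 24-hour compound-free incubation after seeding, followed by 72 hours of compound treatment with 10% FCS serum at 37° C. and 5% (v/v) CO2. Viable cells were quantified by a 4 h Alamar blue incubation and fluorescent plate reading at 544 nm/590 nm, and effects were expressed relative to control cells.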
# [3] = target: PLK2 (h) (Homo sapiens, UniProt Q9NYY3); assay: PLK2 human kinase inhibition, SPA; assay type: biochemical; details: read-out: PLK2 pIC50 (converted)
# Procedure, shortened: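 33P incorporation into a biotinylated peptide (2 μM) was captured on streptavidin PVT beads and imaged on Leadseeker. Enzyme at 30 μg/ml, ATP 0.1 μM with 2 nM [γ-33P]ATP, Hepes pH 8.0 with MnCl2 and DTT. Incubation was 20 min at room temperature.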
# [4] = target: PLK1 T210D (h) (Homo sapiens, UniProt P53350, T210D); assay: PLK1 human kinase inhibition, SPA; assay type: biochemical; details: read-out: PLK1 pIC50 (converted)
# Procedure, shortened: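 Kinase incubated 40 min at room temperature with 0.1 μM ATP (2 nM [γ-33P]ATP tracer), 2 μM biotinylated peptide, pH 8.0 Hepes buffer with 2 mM MnCl2 and 1 mM DTT; enzyme at 0.125 ng/ml. Stopped with EDTA; 33P-peptide bound to streptavidin scintillant beads and imaged.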
# [5] = target: GSK3β (h) (Homo sapiens, UniProt P49841); assay: GSK-3β human kinase inhibition, SPA; assay type: biochemical; details: read-out: GSK3b pIC50 (converted)
# Procedure, shortened: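 Radiometric: 33P-labelled peptide captured on streptavidin SPA beads after EDTA stop and imaged on Leadseeker. Reaction ran 1 h at RT, 1 μM cold ATP with 2 nM [γ-33P]ATP, 1 μM biotin-peptide substrate, human GSK3β 1 μg/ml, pH 7.4 Tris buffer.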
# [6] = target: PLK4 (h) (Homo sapiens, UniProt O00444); assay: PLK-4 human kinase inhibition, scintillation proximity assay (SPA); assay type: biochemical; details: read-out: PLK4 pIC50 (converted)
# [7] = tested on: MDA-MB-231; assay: Cellular proliferation assay (Alamar blue), MDA-MB-231; assay type: cell-based; details: Homo sapiens, 10% FCS, 72 hours with compound, Alamar blue 24 h, read-out: MDA/MB231 (cellular proliferation assay, Table 4) (converted)
# Procedure, shortened: (§1)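 Alamar blue fluorescence (544/590 nm) measured viable cells after 72 h compound exposure; dye incubation 4 h (HCT-116), 6 h (U87-MG) or 24 h (A2780, MDA-MB-231). Cells pre-seeded 24 h, grown in 10% FCS, 37° C, 5% CO2; effect expressed relative to control cells.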
# [8] = tested on: HCT-116; assay: Cellular proliferation assay (Alamar blue), HCT-116; assay type: cell-based; details: Homo sapiens, 10% FCS, 72 hours with compound, Alamar blue 4 h
# Procedure, shortened: as §1
# [9] = target: CDK4/CyclinD1 (h) (Homo sapiens, UniProt P11802); assay: CDK4/CyclinD1 human kinase inhibition, SPA with GST-pRb substrate; assay type: biochemical; details: read-out: CDK4 pIC50 (converted)
# Procedure, shortened: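 Scintillation proximity format: after EDTA/Triton stop containing glutathione SPA beads, 33P incorporation was counted. The reaction ran 60 min at room temperature in Hepes pH 7.5 with NaF, MgCl2, DTT, using 2.5 μg/ml human CDK4/CyclinD1, 40 μg/ml GST-pRb substrate and 2 nM [γ-33P]ATP.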
# GSK3β (h), sequence (P49841 whole entry): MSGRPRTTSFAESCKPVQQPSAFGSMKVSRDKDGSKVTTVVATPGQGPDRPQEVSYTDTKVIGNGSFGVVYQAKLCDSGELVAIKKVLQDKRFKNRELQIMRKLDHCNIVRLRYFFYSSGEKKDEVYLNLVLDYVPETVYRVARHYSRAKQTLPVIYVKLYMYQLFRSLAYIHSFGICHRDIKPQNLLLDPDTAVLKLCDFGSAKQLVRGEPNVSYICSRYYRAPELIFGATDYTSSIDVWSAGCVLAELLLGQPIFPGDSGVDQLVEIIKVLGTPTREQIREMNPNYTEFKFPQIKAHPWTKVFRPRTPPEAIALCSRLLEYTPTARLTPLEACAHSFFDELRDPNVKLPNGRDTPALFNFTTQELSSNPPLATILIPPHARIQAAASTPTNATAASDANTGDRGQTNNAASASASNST
# PLK4 (h), sequence (O00444 whole entry): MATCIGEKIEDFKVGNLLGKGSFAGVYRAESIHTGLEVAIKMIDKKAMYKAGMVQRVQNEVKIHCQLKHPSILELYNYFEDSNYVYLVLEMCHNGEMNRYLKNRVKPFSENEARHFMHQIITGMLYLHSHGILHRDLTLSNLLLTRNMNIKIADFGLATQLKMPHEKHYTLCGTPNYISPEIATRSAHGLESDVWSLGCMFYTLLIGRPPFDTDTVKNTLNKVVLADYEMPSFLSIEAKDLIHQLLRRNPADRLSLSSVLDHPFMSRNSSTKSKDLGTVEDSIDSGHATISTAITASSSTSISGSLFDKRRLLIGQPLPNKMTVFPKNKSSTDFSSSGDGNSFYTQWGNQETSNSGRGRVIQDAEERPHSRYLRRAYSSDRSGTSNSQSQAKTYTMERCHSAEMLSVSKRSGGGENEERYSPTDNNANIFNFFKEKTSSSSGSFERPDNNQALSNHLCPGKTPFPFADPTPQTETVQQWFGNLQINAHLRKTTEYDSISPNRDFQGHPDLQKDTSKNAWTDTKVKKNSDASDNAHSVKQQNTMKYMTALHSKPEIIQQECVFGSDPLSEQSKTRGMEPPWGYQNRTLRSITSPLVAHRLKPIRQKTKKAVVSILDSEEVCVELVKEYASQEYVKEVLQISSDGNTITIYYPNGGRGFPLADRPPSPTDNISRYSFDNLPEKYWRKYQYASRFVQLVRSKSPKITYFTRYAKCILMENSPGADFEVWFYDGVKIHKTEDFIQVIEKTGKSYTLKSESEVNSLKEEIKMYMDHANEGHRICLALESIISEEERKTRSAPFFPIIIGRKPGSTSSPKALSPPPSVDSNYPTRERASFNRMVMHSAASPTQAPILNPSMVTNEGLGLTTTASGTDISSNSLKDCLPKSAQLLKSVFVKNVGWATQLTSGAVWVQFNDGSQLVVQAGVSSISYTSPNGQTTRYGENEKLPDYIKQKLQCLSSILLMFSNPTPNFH
# PLK2 (h), sequence (Q9NYY3 whole entry): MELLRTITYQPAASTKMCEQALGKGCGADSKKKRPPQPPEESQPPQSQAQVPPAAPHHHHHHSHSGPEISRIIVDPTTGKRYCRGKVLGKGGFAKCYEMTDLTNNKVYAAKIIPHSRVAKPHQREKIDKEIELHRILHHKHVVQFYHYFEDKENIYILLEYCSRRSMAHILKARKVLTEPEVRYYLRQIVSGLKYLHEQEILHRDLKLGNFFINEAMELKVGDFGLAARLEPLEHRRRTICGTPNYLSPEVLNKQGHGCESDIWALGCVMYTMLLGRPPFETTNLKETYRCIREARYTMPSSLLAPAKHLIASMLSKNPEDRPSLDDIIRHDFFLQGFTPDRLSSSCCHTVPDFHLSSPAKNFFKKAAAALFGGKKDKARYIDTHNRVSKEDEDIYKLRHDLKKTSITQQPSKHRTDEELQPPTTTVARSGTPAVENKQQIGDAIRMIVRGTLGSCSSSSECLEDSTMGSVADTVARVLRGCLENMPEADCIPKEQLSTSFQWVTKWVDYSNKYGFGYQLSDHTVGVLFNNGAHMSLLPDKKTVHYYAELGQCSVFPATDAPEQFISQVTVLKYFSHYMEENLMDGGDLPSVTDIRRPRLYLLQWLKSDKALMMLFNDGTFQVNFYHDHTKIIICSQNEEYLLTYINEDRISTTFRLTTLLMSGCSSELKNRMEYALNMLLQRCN
# CDK4/CyclinD1 (h), sequence (P11802 whole entry): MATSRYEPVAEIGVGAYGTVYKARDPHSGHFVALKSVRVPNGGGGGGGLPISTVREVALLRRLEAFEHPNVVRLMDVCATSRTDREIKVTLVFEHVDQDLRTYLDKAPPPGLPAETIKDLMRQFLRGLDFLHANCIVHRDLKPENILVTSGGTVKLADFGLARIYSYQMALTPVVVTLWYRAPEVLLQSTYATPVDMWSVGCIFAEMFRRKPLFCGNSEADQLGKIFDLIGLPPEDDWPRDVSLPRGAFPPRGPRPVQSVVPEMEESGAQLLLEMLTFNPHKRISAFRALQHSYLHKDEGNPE
# CDK4/CyclinD1 (h), sequence (P24385 whole entry partner): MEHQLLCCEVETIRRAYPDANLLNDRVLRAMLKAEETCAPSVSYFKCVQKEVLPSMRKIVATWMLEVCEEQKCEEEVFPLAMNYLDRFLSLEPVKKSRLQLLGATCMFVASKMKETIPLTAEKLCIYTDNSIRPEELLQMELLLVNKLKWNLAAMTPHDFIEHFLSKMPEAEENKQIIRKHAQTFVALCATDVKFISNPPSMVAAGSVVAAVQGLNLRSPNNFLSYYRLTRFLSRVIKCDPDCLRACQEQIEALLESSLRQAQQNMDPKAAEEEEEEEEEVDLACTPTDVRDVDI
# AuroraB (h), sequence (Q96GD4 whole entry): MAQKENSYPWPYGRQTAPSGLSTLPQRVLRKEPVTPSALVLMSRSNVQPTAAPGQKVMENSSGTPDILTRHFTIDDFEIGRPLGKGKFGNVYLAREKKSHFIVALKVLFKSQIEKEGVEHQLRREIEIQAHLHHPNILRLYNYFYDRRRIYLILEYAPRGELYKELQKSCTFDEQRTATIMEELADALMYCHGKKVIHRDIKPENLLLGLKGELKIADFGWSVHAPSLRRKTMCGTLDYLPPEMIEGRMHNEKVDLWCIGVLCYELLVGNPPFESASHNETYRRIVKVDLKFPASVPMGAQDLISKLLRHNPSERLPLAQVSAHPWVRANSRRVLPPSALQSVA
# PLK1 T210D (h), sequence (P53350 whole entry T210D): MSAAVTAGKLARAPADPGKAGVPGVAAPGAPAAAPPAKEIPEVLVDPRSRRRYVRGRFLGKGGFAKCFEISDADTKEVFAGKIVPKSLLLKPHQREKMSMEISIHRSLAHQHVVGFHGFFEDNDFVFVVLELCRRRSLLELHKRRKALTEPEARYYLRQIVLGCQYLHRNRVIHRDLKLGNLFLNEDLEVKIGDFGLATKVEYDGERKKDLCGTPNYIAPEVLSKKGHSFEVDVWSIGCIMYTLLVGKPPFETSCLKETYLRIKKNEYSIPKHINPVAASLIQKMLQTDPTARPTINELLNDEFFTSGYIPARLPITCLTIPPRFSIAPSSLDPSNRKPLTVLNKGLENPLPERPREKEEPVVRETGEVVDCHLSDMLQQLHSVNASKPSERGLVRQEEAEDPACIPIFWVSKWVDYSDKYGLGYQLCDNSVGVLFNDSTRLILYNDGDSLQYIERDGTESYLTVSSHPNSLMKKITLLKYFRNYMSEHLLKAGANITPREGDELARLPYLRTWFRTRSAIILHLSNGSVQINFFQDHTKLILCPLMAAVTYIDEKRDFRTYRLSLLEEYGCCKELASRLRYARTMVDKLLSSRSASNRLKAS
Compound,IC50 [1],IC50 [2],IC50 [3],IC50 [4],IC50 [5],IC50 [6],IC50 [7],IC50 [8],IC50 [9]
O=C1CN2CCN(CC2)Cc2cc(ccc2N2CCOCC2)Nc2nccc(n2)-c2cccc(c2)OCCCN1 [Compound 103],> 10 µM,> 10 µM,> 10 µM,> 10 µM,1.55 µM,1.1 µM,> 10 µM,> 10 µM,> 10 µM
CN1CCCNC(=O)[C@H](CO)NCc2cccc(c2)Nc2nccc(n2)-c2ccc(cc2)C1 [Compound 113],> 10 µM,> 10 µM,> 10 µM,> 10 µM,> 10 µM,1.17 µM,> 10 µM,> 10 µM,> 10 µM
O=C1NCCNCc2ccc(cc2)-c2ccnc(n2)Nc2ccc(N3CCOCC3)c(c2)CN[C@H]1CO [Compound 115],> 10 µM,> 10 µM,> 10 µM,> 10 µM,> 10 µM,1.35 µM,> 10 µM,> 10 µM,> 10 µM
COc1ccc2cc1CNCCNC(=O)CN1CCN(CC1)Cc1cc(ccc1N1CCOCC1)Nc1nccc-2n1 [Compound 126],8.71 µM,> 10 µM,> 10 µM,> 10 µM,> 10 µM,0.813 µM,> 10 µM,8.71 µM,> 10 µM
COc1ccc2cc1CN(C)CCCNC(=O)CN1CCN(CC1)Cc1cc(cc(NC(C)C)c1)Nc1nccc-2n1 [Compound 130],6.31 µM,> 10 µM,> 10 µM,> 10 µM,5.37 µM,1.23 µM,> 10 µM,> 10 µM,> 10 µM
CN1CCNC(=O)CN2CCN(CC2)Cc2cc(cc(N3CCOCC3)c2)Nc2nccc(n2)-c2ccc(cc2)C1 [Compound 135],> 10 µM,> 10 µM,> 10 µM,> 10 µM,4.37 µM,1.74 µM,> 10 µM,> 10 µM,> 10 µM
COc1ccc2cc1CN(C)CCCNC(=O)CN1CCN(CC1)Cc1cc(cc(N3CCOCC3)c1)Nc1nccc-2n1 [Compound 141],> 10 µM,> 10 µM,> 10 µM,> 10 µM,> 10 µM,3.02 µM,> 10 µM,2.29 µM,> 10 µM
COc1ccc2cc1CN(C)CCNC(=O)CN1CCN(CC1)Cc1cc(cc(NC(C)C)c1)Nc1nccc-2n1 [Compound 142],> 10 µM,> 10 µM,> 10 µM,> 10 µM,> 10 µM,3.31 µM,> 10 µM,> 10 µM,> 10 µM
COc1ccc2cc1CN(C)CCCNC(=O)CN1CCN(CC1)Cc1cc(Br)cc(c1)Nc1nccc-2n1 [Compound 144],7.94 µM,> 10 µM,> 10 µM,> 10 µM,> 10 µM,4.17 µM,> 10 µM,> 10 µM,> 10 µM
COc1ccc2cc1CN(C)CCNC(=O)CN1CCN(CC1)Cc1cc(cc(N3CCOCC3)c1)Nc1nccc-2n1 [Compound 145],> 10 µM,> 10 µM,> 10 µM,> 10 µM,> 10 µM,4.37 µM,> 10 µM,> 10 µM,> 10 µM
COc1ccc2cc1CN(C)CCCNC(=O)CN1CCN(CC1)Cc1cccc(c1)Nc1nccc-2n1 [Compound 146],> 10 µM,> 10 µM,> 10 µM,> 10 µM,> 10 µM,6.76 µM,> 10 µM,> 10 µM,> 10 µM
COc1ccc2cc1CN(C)CCNC(=O)CN1CCN(CC1)Cc1cccc(c1)Nc1nccc-2n1 [Compound 147],> 10 µM,> 10 µM,> 10 µM,> 10 µM,> 10 µM,> 10 µM,> 10 µM,> 10 µM,> 10 µM
CC(C)Nc1cc2cc(c1)Nc1nccc(n1)-c1ccc(cc1)CN(C)CCNC(=O)[C@@H]1CCCN1C2 [Compound 153],> 10 µM,> 10 µM,> 10 µM,> 10 µM,3.24 µM,0.776 µM,> 10 µM,5.5 µM,> 10 µM
CN1CCNC(=O)[C@@H]2CCCN2Cc2cc(Br)cc(c2)Nc2nccc(n2)-c2ccc(cc2)C1 [Compound 155],> 10 µM,> 10 µM,> 10 µM,> 10 µM,2.34 µM,0.832 µM,> 10 µM,> 10 µM,> 10 µM
O=C1NCCNc2cc(ccn2)-c2ccnc(n2)Nc2ccc(N3CCOCC3)c(c2)CN2CCCC12 (stereo not drawn) [Compound 161],6.17 µM,10 µM,> 10 µM,> 10 µM,0.182 µM,1.58 µM,> 10 µM,4.68 µM,> 10 µM
COc1ccc2cc1CN(C)CCCNC(=O)[C@@H]1CCCN1Cc1cc(cc(NC(C)C)c1)Nc1nccc-2n1 [Compound 164],> 10 µM,> 10 µM,> 10 µM,> 10 µM,> 10 µM,2.63 µM,> 10 µM,> 10 µM,> 10 µM
O=C1NCCCNCc2ccc(cc2)-c2ccnc(n2)Nc2ccc(N3CCOCC3)c(c2)CN2C[C@H](O)C[C@@H]12 [Compound 169],> 10 µM,> 10 µM,> 10 µM,> 10 µM,> 10 µM,3.89 µM,> 10 µM,> 10 µM,> 10 µM
CN1CCCNC(=O)[C@@H]2CCCN2Cc2cccc(c2)Nc2nccc(n2)-c2ccc(cc2)C1 [Compound 173],> 10 µM,> 10 µM,> 10 µM,> 10 µM,> 10 µM,6.17 µM,> 10 µM,> 10 µM,> 10 µM
COc1ccc2cc1CN(C)CCNC(=O)[C@@H]1CCCN1Cc1cccc(c1)Nc1nccc-2n1 [Compound 175],> 10 µM,> 10 µM,> 10 µM,> 10 µM,> 10 µM,8.51 µM,> 10 µM,> 10 µM,> 10 µM
COc1ccc2cc1CNCCNC(=O)[C@@H]1C[C@@H](O)CN1Cc1cc(ccc1N1CCOCC1)Nc1nccc-2n1 [Compound 177],> 10 µM,> 10 µM,> 10 µM,> 10 µM,> 10 µM,> 10 µM,> 10 µM,> 10 µM,> 10 µM
COc1ccc2cc1CNCCNC(=O)[C@@H]1CCCN1Cc1cc(ccc1N1CCOCC1)Nc1nccc-2n1 [Compound 178],> 10 µM,> 10 µM,> 10 µM,> 10 µM,> 10 µM,> 10 µM,> 10 µM,> 10 µM,> 10 µM
COc1ccc2cc1CN(C)CCCNC(=O)[C@@H]1CCCN1Cc1cc(cc(N3CCOCC3)c1)Nc1nccc-2n1 [Compound 179],> 10 µM,> 10 µM,> 10 µM,> 10 µM,> 10 µM,> 10 µM,> 10 µM,> 10 µM,> 10 µM
